Measured values from US20070270436A1, “NOVEL AMINO- AND IMINO-ALKYLPIPERAZINES” (Recordati Ireland Limited, priority 2006, published 2007).

biological target: T1, human 5HT1A-serotonergic receptor (Homo sapiens, UniProt P08908); test: Radioligand binding to recombinant 5-HT1A receptor ([3H]8-OH-DPAT, HeLa cell membranes); settings: 1 nM [3H]8-OH-DPAT; Ki from IC50 by the Cheng equation; read-out: Ki (nM), binding affinity for 5HT1A receptor
T1 construct: expressed in transfected cells; host or cells: HeLa (human), stably transfected; membranes
T1 sequence (P08908 1-422): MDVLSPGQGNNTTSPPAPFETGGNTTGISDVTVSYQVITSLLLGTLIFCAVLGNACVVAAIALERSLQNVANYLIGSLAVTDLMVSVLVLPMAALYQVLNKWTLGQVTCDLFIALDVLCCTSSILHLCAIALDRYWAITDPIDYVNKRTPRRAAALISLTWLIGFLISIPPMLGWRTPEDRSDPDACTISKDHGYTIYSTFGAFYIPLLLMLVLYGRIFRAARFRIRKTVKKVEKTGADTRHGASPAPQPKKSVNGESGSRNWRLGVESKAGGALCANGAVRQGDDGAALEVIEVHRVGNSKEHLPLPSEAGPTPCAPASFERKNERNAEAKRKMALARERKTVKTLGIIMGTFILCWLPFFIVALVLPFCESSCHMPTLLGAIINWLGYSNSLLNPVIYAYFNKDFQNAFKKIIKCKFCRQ
Protocol: Genomic clone G-21 encoding the human 5HT1A-serotonergic receptor was stably transfected in a human cell line (HeLa). HeLa cells were grown as monolayers in Dulbecco's modified Eagle medium (DMEM), containing 10% fetal bovine serum and gentamycin (100 μg/ml) at 37° C. in a humidified atmosphere of 5% CO2 and air. The cells were detached from the growth flask at 95% confluence by a cell scraper and were lysed in cold 5 mM Tris and 5 mM EDTA buffer (pH 7.4). The homogenates were centrifuged at 40000×g×20 minutes and the pellets were resuspended in a small volume of cold 5 mM Tris and 5 mM EDTA buffer (pH 7.4) and immediately frozen and stored at −70° C. until use. On the day of experiment, the cell membranes were resuspended in incubation buffer: 50 mM Tris (pH 7.4), 2.5 mM MgCl2, 10 μM pargyline (Fargin et al., Nature 335, 358-360, 1988). The membranes were incubated in a final volume of 0.32 ml for 30 minutes at 30° C. with 1 nM [^3H]8-OH-DPAT, in the absence or presence of the test compounds. Non-specific binding was determined in the presence of 10 μM 5-HT. Incubation was stopped by addition of cold Tris buffer and rapid filtration through UniFilter GF/C plate.
The affinity of the tested compounds was evaluated as inhibition of specific binding of the radioligand to 5-HT1A receptor (IC50) by using the non-linear curve-fitting program Allfit (De Lean et al., Am. J. Physiol. 235, E97-E102 (1978)). The IC50 value was converted to an affinity constant (Ki) by the equation of Cheng et al., Biochem. Pharmacol. 22, 3099-3108 (1973).

SMILES | Ki [nM]
CC(=NO)C(CCN1CCN(c2cccc3c2OCCO3)CC1)c1ccccc1F (stereo not drawn) [Example 27, E(Z)-5-[4-(2,3-Dihydrobenzo[1,4]dioxin-5-yl)piperazin-1-yl]-3-(2-fluorophenyl)pentan-2-one oxime] | 1.77
CNC(C1CCCCC1)C(CCN1CCN(c2ccccc2OC)CC1)c1ccccc1F (stereo not drawn) [Example 10a] | 0.49
O=CNC(C1CCCCC1)C(CCN1CCN(c2cccc3c2OCCO3)CC1)c1ccccc1F (stereo not drawn) [Example 37, N-[1-Cyclohexyl-4-[4-(2,3-dihydrobenzo[1,4]dioxin-5-yl)piperazin-1-yl]-2-(2-fluorophenyl)butyl]formamide] | 0.8
O=CNC(C1CCCCC1)C(CCN1CCN(c2cccc3[nH]cnc23)CC1)c1ccccc1F (stereo not drawn) [Example 47, N-[4-[4-(1H-Benzimidazol-4-yl)piperazin-1-yl]-1-cyclohexyl-2-(2-fluoro-phenyl)butyl]formamide] | 0.8
COc1ccccc1N1CCN(CC[C@H](c2ccccc2F)[C@@H](N)C2CCCCC2)CC1 (single isomer, unassigned) [Example 5aB, (1S,2R) or (1R,2S)-1-Cyclohexyl-2-(2-fluorophenyl)-4-[4-(2-methoxyphenyl)piperazin-1-yl]butylamine] | 1.2
COc1ccccc1N1CCN(CCC(C(=NOC(C)=O)C2CCCCC2)c2ccccc2F)CC1 (stereo not drawn) [Example 3, 1-Cyclohexyl-2-(2-fluorophenyl)-4-[4-(2-methoxyphenyl)-piperazin-1-yl]butan-1-one O-acetyl oxime] | 0.87
CNC(=S)N[C@H](C1CCCCC1)[C@@H](CCN1CCN(c2ccccc2OC)CC1)c1ccccc1F (racemic) [Example 23, 1-{(RS,SR)-1-Cyclohexyl-2-(2-fluorophenyl)-4-[4-(2-methoxyphenyl)-piperazin-1-yl]butyl}-3-methylthiourea] | 0.58
COc1ccc(Br)c(CN2CCN(CCC(c3ccccc3F)C(N)C3CCCCC3)CC2)c1 (stereo not drawn) [Example 43, 4-[4-(2-Bromo-5-methoxybenzyl)piperazin-1-yl]-1-cyclohexyl-2-(2-fluorophenyl)butylamine] | 0.3
COc1ccccc1N1CCN(CC[C@@H](c2ccccc2F)[C@H](NC(N)=O)C2CCCCC2)CC1 (racemic) [Example 18, {(RS,SR)-1-Cyclohexyl-2-(2-fluorophenyl)-4-[4-(2-methoxyphenyl)-piperazin-1-yl]butyl}urea] | 1.84
NC(C1CCCCC1)C(CCN1CCN(c2cccc3[nH]cnc23)CC1)c1ccccc1F (stereo not drawn) [Example 48, 4-[4-(1H-Benzimidazol-4-yl)piperazin-1-yl]-1-cyclohexyl-2-(2-fluorophenyl)butylamine] | 0.3
COc1ccccc1N1CCN(CC[C@@H](c2ccccc2F)[C@H](N)C2CCCCC2)CC1 (single isomer, unassigned) [Example 5aA, (1R,2S) or (1S,2R)-1-Cyclohexyl-2-(2-fluorophenyl)-4-[4-(2-methoxyphenyl)piperazin-1-yl]butylamine] | 0.6
COc1ccc(Br)c(CN2CCN(CCC(c3ccccc3F)C(NC=O)C3CCCCC3)CC2)c1 (stereo not drawn) [Example 42, N-[4-[4-(2-Bromo-5-methoxybenzyl)piperazin-1-yl]-1-cyclohexyl-2-(2-fluorophenyl)butyl]formamide] | 0.5
CNC(C1CCCCC1)C(CCN1CCN(c2cccc3c2OCCO3)CC1)c1ccccc1F (stereo not drawn) [Example 39, 1-Cyclohexyl-4-[4-(2,3-dihydrobenzo[1,4]dioxin-5-yl)piperazin-1-yl]-2-(2-fluorophenyl)butylmethylamine] | 0.3
CON=C(C)C(CCN1CCN(c2cccc3c2OCCO3)CC1)c1ccccc1F (mixture of isomers) [Example 28, 5-[4-(2,3-Dihydrobenzo[1,4]dioxin-5-yl)piperazin-1-yl]-3-(2-fluorophenyl)-pentan-2-one O-methyloxime] | 1.33
COc1ccccc1N1CCN(CC[C@@H](c2ccccc2F)[C@H](NCc2ccco2)C2CCCCC2)CC1 (racemic) [Example 14, {(RS,SR)-1-Cyclohexyl-2-(2-fluorophenyl)-4-[4-(2-methoxyphenyl)-piperazin-1-yl]butyl}furan-2-ylmethylamine] | 0.42
CNC(=O)N[C@H](C1CCCCC1)[C@@H](CCN1CCN(c2ccccc2OC)CC1)c1ccccc1F (racemic) [Example 19, 1-{(RS,SR)-1-Cyclohexyl-2-(2-fluorophenyl)-4-[4-(2-methoxyphenyl)-piperazin-1-yl]butyl}-3-methylurea] | 2.09
COc1ccc(Br)c(CN2CCN(CCC(c3ccccc3F)C(NC(C)=O)C3CCCCC3)CC2)c1 (stereo not drawn) [Example 45, N-[4-[4-(2-Bromo-5-methoxybenzyl)piperazin-1-yl]-1-cyclohexyl-2-(2-fluoro-phenyl)butyl]acetamide] | 1.1
COc1ccccc1N1CCN(CC[C@@H](c2ccccc2F)[C@@H](C2CCCCC2)N(C)C(=O)N(C)C)CC1 (racemic) [Example 22, 1-{(RS,SR)-1-Cyclohexyl-2-(2-fluorophenyl)-4-[4-(2-methoxyphenyl)-piperazin-1-yl]butyl}-1,3,3-trimethylurea] | 1.24
COc1ccccc1N1CCN(CC[C@@H](c2ccccc2F)[C@H](NC(C)C)C2CCCCC2)CC1 (racemic) [Example 12, (RS,SR)-{1-Cyclohexyl-2-(2-fluorophenyl)-4-[4-(2-methoxyphenyl)-piperazin-1-yl]butyl}isopropylamine] | 0.99
N[C@H](C1CCCCC1)[C@@H](CCN1CCN(c2cccc3c2OCCO3)CC1)c1ccccc1F (racemic) [Example 38, (RS,SR)-1-Cyclohexyl-4-[4-(2,3-dihydrobenzo[1,4]dioxin-5-yl)-piperazin-1-yl]-2-(2-fluorophenyl)butylamine] | 0.8
CC(=NO)C(CCN1CCN(c2ccccc2OCC(F)(F)F)CC1)c1ccccc1F (stereo not drawn) [Example 31, E(Z)-3-(2-Fluorophenyl)-5-{4-[2-(2,2,2-trifluoroethoxy)phenyl]-piperazin-1-yl}pentan-2-one oxime] | 6.03
CON=C(C)C(CCN1CCN(c2ccccc2OCC(F)(F)F)CC1)c1ccccc1F (stereo not drawn) [Example 32, E(Z)-3-(2-Fluorophenyl)-5-{4-[2-(2,2,2-trifluoroethoxy)phenyl]-piperazin-1-yl}pentan-2-one O-methyloxime] | 2.24
COc1ccccc1N1CCN(CC[C@@H](c2ccccc2F)[C@H](N)C2CCCCC2)CC1 (racemic) [Example 5a, (RS,SR)-1-Cyclohexyl-2-(2-fluorophenyl)-4-[4-(2-methoxyphenyl)-piperazin-1-yl]butylamine] | 0.48
COc1ccccc1N1CCN(CCC(c2ccccc2F)C(NC(=O)N2CCOCC2)C2CCCCC2)CC1 (stereo not drawn) [Example 20, 1-{(RS,SR)-1-Cyclohexyl-2-(2-fluorophenyl)-4-[4-(2-methoxyphenyl)-piperazin-1-yl]butyl}morpholine-4-carboxamide] | 2.9
COc1ccccc1N1CCN(CC[C@H](c2ccccc2F)[C@H](NC(C)=O)C2CCCCC2)CC1 (racemic) [Example 9, N-{(RS,RS)-1-Cyclohexyl-2-(2-fluorophenyl)-4-[4-(2-methoxyphenyl)-piperazin-1-yl]butyl}acetamide] | 1.4
CON=C(C1CCCCC1)C(CCN1CCN(c2ccccc2OC)CC1)c1ccccc1F (stereo not drawn) [Example 2, 1-Cyclohexyl-2-(2-fluorophenyl)-4-[4-(2-methoxyphenyl)-piperazin-1-yl]butan-1-one O-methyloxime] | 1.9
CNC(C1CCCCC1)C(CCN1CCN(c2ccccc2OC)CC1)c1ccccc1F (stereo not drawn) [Example 10b] | 1.41
CO/N=C(\C1CCCCC1)C(CCN1CCN(c2cccc3c2OCCO3)CC1)c1ccccc1C#N (racemic) [Example 26, (R,S)-2-{1′-{Cyclohexyl-[(E)-methoxyimino]methyl}-3-[4-(2,3-dihydrobenzo[1,4]dioxin-5-yl)-piperazin-1-yl]propyl}benzonitrile] | 0.38
COc1ccccc1N1CCN(CC[C@H](c2ccccc2F)[C@H](N)C2CCCCC2)CC1 (racemic) [Example 5b, (RS,RS)-1-Cyclohexyl-2-(2-fluorophenyl)-4-[4-(2-methoxyphenyl)-piperazin-1-yl]butylamine] | 0.77
COc1ccccc1N1CCN(CCC(c2ccccc2F)C(NC=O)C2CCCCC2)CC1 (stereo not drawn) [Example 6, N-{1-Cyclohexyl-2-(2-fluorophenyl)-4-[4-(2-methoxyphenyl)-piperazin-1-yl]butyl}formamide] | 1.2
